# Assays:
# [1] = target: T1, Alpha-1B adrenergic receptor (Homo sapiens, UniProt P35368); experiment: Displacement of [125I]HEAT from COS cells membranes expressing human Alpha-1B adrenergic receptor; type: cell membranes
# T1 sequence (P35368 whole entry): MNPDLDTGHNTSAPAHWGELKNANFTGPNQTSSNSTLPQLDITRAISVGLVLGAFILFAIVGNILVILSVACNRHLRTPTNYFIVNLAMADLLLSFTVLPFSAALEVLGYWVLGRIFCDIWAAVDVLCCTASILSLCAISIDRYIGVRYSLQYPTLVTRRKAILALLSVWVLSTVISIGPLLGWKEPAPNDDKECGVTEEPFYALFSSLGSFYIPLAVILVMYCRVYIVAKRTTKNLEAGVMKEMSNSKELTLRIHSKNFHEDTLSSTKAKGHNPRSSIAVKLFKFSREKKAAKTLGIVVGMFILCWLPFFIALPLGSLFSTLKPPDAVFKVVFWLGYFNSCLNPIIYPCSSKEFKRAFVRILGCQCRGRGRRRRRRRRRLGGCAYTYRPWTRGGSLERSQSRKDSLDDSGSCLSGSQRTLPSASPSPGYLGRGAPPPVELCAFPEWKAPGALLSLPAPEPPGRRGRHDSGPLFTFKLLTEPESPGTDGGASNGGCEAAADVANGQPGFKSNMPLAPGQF
# [2] = target: Alpha adrenergic receptor (1a and 1d) (Homo sapiens) (UniProt P35348+P25100); experiment: Relative binding to alpha1d and alpha-1a receptors (ratio of Ki); type: protein assay
# [3] = target: Adrenergic receptors; alpha-1 A & B (Homo sapiens) (UniProt P35348+P35368); experiment: Relative binding to alpha-1b and alpha-1a receptors (ratio of Ki); type: protein assay
# [4] = target: T2, Alpha-1A adrenergic receptor (Homo sapiens, UniProt P35348); experiment: Displacement of [125I]HEAT from COS cell membranes expressing human Alpha-1A adrenergic receptor
# T2 sequence (P35348 whole entry): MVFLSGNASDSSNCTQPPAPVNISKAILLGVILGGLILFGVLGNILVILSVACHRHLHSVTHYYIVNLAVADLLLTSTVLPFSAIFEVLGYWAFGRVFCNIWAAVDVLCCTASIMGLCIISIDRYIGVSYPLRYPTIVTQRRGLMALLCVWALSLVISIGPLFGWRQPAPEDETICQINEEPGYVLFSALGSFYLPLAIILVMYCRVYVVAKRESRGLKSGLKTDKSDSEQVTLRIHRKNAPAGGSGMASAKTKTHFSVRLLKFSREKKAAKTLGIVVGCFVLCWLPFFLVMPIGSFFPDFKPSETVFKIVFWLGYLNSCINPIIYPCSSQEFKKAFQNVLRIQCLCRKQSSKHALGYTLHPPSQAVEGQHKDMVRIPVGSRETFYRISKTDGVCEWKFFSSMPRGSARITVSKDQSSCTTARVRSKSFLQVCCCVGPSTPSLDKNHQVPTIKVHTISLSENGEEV
# [5] = target: T3, Alpha-1D adrenergic receptor (Homo sapiens, UniProt P25100); experiment: Displacement of [125I]-HEAT from human Alpha-1D adrenergic receptor expressed in COS cells membranes; type: cell membranes
# T3 sequence (P25100 whole entry): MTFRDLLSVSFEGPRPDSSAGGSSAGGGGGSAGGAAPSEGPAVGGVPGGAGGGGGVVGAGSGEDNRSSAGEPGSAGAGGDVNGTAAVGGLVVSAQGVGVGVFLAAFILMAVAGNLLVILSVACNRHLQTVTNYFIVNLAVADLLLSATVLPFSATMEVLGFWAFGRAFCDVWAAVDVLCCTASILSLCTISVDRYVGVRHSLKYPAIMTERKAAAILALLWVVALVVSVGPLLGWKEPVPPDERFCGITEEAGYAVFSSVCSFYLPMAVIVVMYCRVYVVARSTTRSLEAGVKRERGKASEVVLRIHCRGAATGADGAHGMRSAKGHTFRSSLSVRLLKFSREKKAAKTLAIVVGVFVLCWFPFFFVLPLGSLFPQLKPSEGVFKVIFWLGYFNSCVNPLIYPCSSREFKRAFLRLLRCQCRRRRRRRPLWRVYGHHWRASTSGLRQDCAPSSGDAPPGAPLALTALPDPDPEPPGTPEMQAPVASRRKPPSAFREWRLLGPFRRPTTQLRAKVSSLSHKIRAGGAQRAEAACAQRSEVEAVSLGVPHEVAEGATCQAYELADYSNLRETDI
Ki [1] [nM],Ratio [2],Ratio [3],Ki [4] [nM],Ki [5] [nM],Structure (SMILES)
2570,0.3,6.1,419,130,COc1ccccc1N1CCN(Cc2ccc(CN3CCCCC3O)s2)CC1 (stereo not given)
> 5000,0.9,> 357,14,12,COc1ccccc1N1CCN(Cc2ccc(CN3CCCCC3=O)s2)CC1
615,26,342,1.8,47,CC(C)Oc1ccccc1N1CCN(Cc2cc(CN3CCCCCC3=O)cs2)CC1
> 5000,0.6,> 125,40,23,COc1ccccc1N1CCN(Cc2ccc(CN3CCCC3=O)s2)CC1
592,1.3,49,12,15,COC(=O)[C@@H]1CCCN1Cc1ccc(CN2CCN(c3ccccc3OC)CC2)s1
384,184,769,0.5,92,CC(C)Oc1ccccc1N1CCN(Cc2cc(CN3CCCCC3=O)cs2)CC1
259,147,1520,0.2,25,CC(C)Oc1ccccc1N1CCN(Cc2cc(CN3CCCC3=O)cs2)CC1
413,54,1250,0.3,18,CC(C)Oc1ccccc1N1CCN(Cc2ccc(CN3CCCCC3=O)s2)CC1
1880,0.4,3.2,578,262,COc1ccccc1N1CCN(Cc2ccc(C=O)s2)CC1
1060,0.7,5.3,202,138,COc1ccccc1N1CCN(Cc2ccc(CO)s2)CC1
> 5000,0.7,> 278,18,13,COc1ccccc1N1CCN(Cc2ccc(CN3CCCCCC3=O)s2)CC1

Structure (SMILES),Ki [1] [nM],Ratio [2],Ratio [3],Ki [4] [nM],Ki [5] [nM]
COc1ccccc1N1CCN(Cc2ccc(Br)s2)CC1,757,0.7,6,128,92
CC(C)Oc1ccccc1N1CCN(Cc2cc(CO)cs2)CC1,> 5000,1,> 15,331,339

# — ChEMBL document CHEMBL1134860, “Novel thiophene derivatives for the treatment of benign prostatic hyperplasia” (Bioorg Med Chem Lett, 2002)
